From PubChem BioAssay (NCI) come the findings set out here.

Some test systems named below: ACHN renal; EKVX NSCLC; HCT-15 colon; LOX IMVI melanoma; M14 melanoma; MALME-3M melanoma; SF-268 CNS; SK-MEL-2 melanoma; SK-MEL-28 melanoma; SNB-19 CNS.
Test in all cases: NCI anticancer screen, dose series, 48 h

The structures appear in SMILES notation.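 The compound was tested at five concentrations on cells cultured in 96-well plates, with a 48-hour exposure period. The concentration for 50% growth inhibition is given as GI50. TGI is the concentration that stops growth completely.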

In the case of `Cc1c2cnccc2c(C)c2c1c1cc(C#N)ccc1n2C`, the GI50 with ACHN renal is 0.0457 µM; in the test on EKVX NSCLC, 0.219 µM; in the test with HCT-15 colon, 0.0966 µM; in the test on LOX IMVI melanoma, 0.115 µM; with M14 melanoma, 0.232 µM; in the test with MALME-3M melanoma, 0.195 µM. The GI50 in the test on SF-268 CNS is 0.209 µM; in the test on SK-MEL-2 melanoma it was 0.256 µM; with SK-MEL-28 melanoma, 0.285 µM; in the test on SNB-19 CNS, 0.181 µM. Besides, the TGI is 0.456 µM with ACHN renal; 0.624 µM with EKVX NSCLC; 0.85 µM in the test on HCT-15 colon; 0.615 µM in the test on LOX IMVI melanoma; 0.654 µM in the test with M14 melanoma; 0.548 µM in the test with MALME-3M melanoma. Also, the TGI in the test on SF-268 CNS is 1.59 µM; with SK-MEL-2 melanoma, 0.771 µM; in the test with SK-MEL-28 melanoma, 0.737 µM; with SNB-19 CNS, 1.94 µM.

With `CCCN1C(=O)NC(=O)C(CC)(N2C(=O)c3c(F)c(F)c(F)c(F)c3C2=O)C1=O` (centres undefined), the GI50 is 1.9 µM in the test with ACHN renal; 2.33 µM with EKVX NSCLC; 1.85 µM in the test with HCT-15 colon; 1.66 µM in the test with LOX IMVI melanoma; 2.2 µM in the test with M14 melanoma; 2.06 µM in the test on MALME-3M melanoma. Besides, the GI50 with SF-268 CNS is 2 µM; in the test on SK-MEL-2 melanoma it was 2.95 µM; in the test with SK-MEL-28 melanoma, 1.71 µM; with SNB-19 CNS it was 2.44 µM. Besides, the TGI with ACHN renal was 3.69 µM; in the test on EKVX NSCLC it was 6.62 µM; in the test on HCT-15 colon, 6.82 µM; in the test on LOX IMVI melanoma, 4.34 µM; in the test on M14 melanoma it was 6.37 µM; with MALME-3M melanoma it was 5.31 µM. Also, the TGI in the test with SF-268 CNS is 5.07 µM; in the test with SK-MEL-2 melanoma, 8.32 µM; in the test with SK-MEL-28 melanoma it was 3.22 µM; in the test with SNB-19 CNS, 6.53 µM.

For the compound `N=C1C(O)C2(I)c3ccccc3N3C(=N)C(O)C4c5ccccc5N1C4C32` (centres undefined), the TGI in the test with ACHN renal, in the test on EKVX NSCLC, in the test on HCT-15 colon, in the test with LOX IMVI melanoma, in the test with M14 melanoma and with MALME-3M melanoma was above 100 µM in each case. Moreover, the TGI with SF-268 CNS, in the test with SK-MEL-2 melanoma, in the test on SK-MEL-28 melanoma and with SNB-19 CNS was above 100 µM in each case.

Turning to `N#CC(N)=Nc1ccccc1`, the TGI with ACHN renal, in the test on EKVX NSCLC, in the test with HCT-15 colon, in the test with LOX IMVI melanoma, in the test with M14 melanoma and with MALME-3M melanoma was above 100 µM each time. Further, the TGI in the test on SF-268 CNS, with SK-MEL-2 melanoma, in the test on SK-MEL-28 melanoma and with SNB-19 CNS was above 100 µM in each case.

In the case of `c1ccc(-c2nc(-c3ccccn3)nc(-c3ccccn3)n2)nc1`, the GI50 is 22.1 µM with ACHN renal; 17 µM in the test on EKVX NSCLC; 5.71 µM with HCT-15 colon; 33.5 µM with LOX IMVI melanoma; 31.4 µM in the test with M14 melanoma; 35.3 µM with MALME-3M melanoma. The GI50 is 32.4 µM in the test with SF-268 CNS, 63.3 µM in the test on SK-MEL-2 melanoma, 71 µM with SK-MEL-28 melanoma and above 100 µM in the test on SNB-19 CNS. Moreover, the TGI in the test on ACHN renal, with EKVX NSCLC, with HCT-15 colon, in the test on LOX IMVI melanoma, with M14 melanoma and in the test on MALME-3M melanoma was above 100 µM throughout. Besides, the TGI in the test with SF-268 CNS, in the test on SK-MEL-2 melanoma, in the test with SK-MEL-28 melanoma and in the test on SNB-19 CNS was above 100 µM in each case.

Take `N#CC(C#N)=C/C=C(\Cl)c1ccc(Cl)cc1`: the GI50 in the test with ACHN renal is 9.96 µM; in the test on EKVX NSCLC, 23.8 µM; with HCT-15 colon, 4.5 µM; in the test on LOX IMVI melanoma, 1.18 µM; in the test with M14 melanoma it was 1.93 µM; with MALME-3M melanoma it was 2.16 µM. Moreover, the GI50 in the test with SF-268 CNS was 14.1 µM; in the test on SK-MEL-2 melanoma, 17.7 µM; in the test on SK-MEL-28 melanoma, 2.38 µM; with SNB-19 CNS it was 18.5 µM. The TGI is 37.2 µM in the test on ACHN renal; 55.4 µM with EKVX NSCLC; above 42.2 µM in the test with HCT-15 colon; 7.38 µM with M14 melanoma; 7.63 µM with MALME-3M melanoma; 50.5 µM in the test on SF-268 CNS. The results for the TGI in the test on SK-MEL-2 melanoma, in the test on SK-MEL-28 melanoma and with SNB-19 CNS were above 100 µM, 45 µM and above 55.2 µM, respectively.

For `CN1N=CSC12C(=O)N(c1ccccc1)C(=O)N2c1ccccc1` (centres undefined), the TGI in the test on ACHN renal, with EKVX NSCLC, in the test with HCT-15 colon, with LOX IMVI melanoma, with M14 melanoma and in the test on MALME-3M melanoma was above 100 µM each time. Also, the TGI in the test with SF-268 CNS, with SK-MEL-2 melanoma, with SK-MEL-28 melanoma and with SNB-19 CNS was above 100 µM each time.
